Experimental findings from publication PMC2790104, “Effects of Acrylamide on the Activity and Structure of Human Brain Creatine Kinase” (International Journal of Molecular Sciences, 2009) are described below.

pIC50: −log10 of the molar value.

In general, pIC50 refers to the IC50 on a negative log10 scale, so that one unit is a factor of ten.

The experiment has as its target T1, HBCK (human brain-type creatine kinase, human BB-CK) (Homo sapiens, UniProt P12277).
T1 construct: gene CKB; homodimer BB; identified by LC-MS/MS
Description: residual activity after […] h incubation, pH-colorimetric assay (thymol blue, […] nm). The format is biochemical.

T1 sequence (P12277 2-381): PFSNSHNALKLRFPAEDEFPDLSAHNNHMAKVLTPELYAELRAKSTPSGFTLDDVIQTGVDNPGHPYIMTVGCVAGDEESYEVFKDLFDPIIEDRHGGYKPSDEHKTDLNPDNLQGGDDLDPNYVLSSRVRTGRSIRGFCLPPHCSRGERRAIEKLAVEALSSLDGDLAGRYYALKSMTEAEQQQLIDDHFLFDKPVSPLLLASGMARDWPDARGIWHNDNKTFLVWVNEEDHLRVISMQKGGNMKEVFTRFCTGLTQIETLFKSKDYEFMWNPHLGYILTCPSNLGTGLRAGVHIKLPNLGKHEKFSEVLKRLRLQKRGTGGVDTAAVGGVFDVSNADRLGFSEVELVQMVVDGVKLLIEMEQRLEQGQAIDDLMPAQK

`C=CC(N)=O` [acrylamide] gave a pIC50 of roughly 1.30.
